Experiment [1] has as its target hROMK (hKir1.1) (Homo sapiens (Human), UniProt P48048). Briefly: Thallium Flux Assay (ROMK channel functional thallium flux, FLIPR-Tetra). It is filed as cell-based. The settings on record: HEK293 cells stably expressing hROMK (hKir1.1); 30 min compound incubation. The text has this:
(§1) Several assays may be used to measure functional inhibition of the ROMK channel by compounds of the instant invention. One assay that can be used is an electrophysiology assay that measures the electrical current that is generated as potassium permeates through the channel. Another ROMK functional assay makes use of the ability of thallium to permeate through open ROMK channels and increase the fluorescence of a dye previously loaded into the cells. Under control conditions, cells loaded with dye and exposed to thallium-containing medium display a time-dependent increase in fluorescence, the rate of which depends on number of functional channels. When cells are incubated in the presence of a channel inhibitor, the increase in fluorescence is attenuated in a concentration-dependent manner, and IC50 values of inhibition by compounds can be accurately determined. This assay has been established with cell lines expressing either human, or rat ROMK channels, and operates in 384-well format.
HEK293 cells stably expressing hROMK (hKir1.1) were grown at 37° C. in a 10% CO2 humidified incubator in complete growth media: Dulbecco's Modified Eagle Medium supplemented with non-essential amino acids, Penicillin/Streptomycin/Glutamine, G418 and FBS. At >80% confluency, the media was aspirated from the flask and the sample was rinsed with 10 ml Calcium/Magnesium-free PBS. […] To dislodge the cell, the side of the flask was gently banged with a hand. The cells were triturated completely and then transferred to 25 ml complete media. The sample was then centrifuged at 1,500 rpm for 6 minutes, followed by resuspension in complete growth media and then cell concentration was determined. […] Under ideal growth conditions and appropriate tissue culture practices, this cell line is stable for 40-45 passages.
• FluxOR™ Reagent (Component A) • FluxOR™ Assay Buffer (Component B)—10× Concentrate • PowerLoad™ Concentrate (Component C)—100× Concentrate • Probenecid (Component D) Lyophilized sample is kept at −20° C. Water soluble, 100× after solubilization in 1 ml water. […] Store at 4° C. • Thallium sulfate (Tl2SO4) Concentrate (Component G)—50 mM in water. […] Can be stored at room temperature • Stimulant Buffer (prepared at 5× final concentration in 1× FluxOR™Chloride-Free Buffer): 7.5 mM Thallium sulfate and 0.75 mM Potassium sulfate (to give a final assay concentration of 3 mM Thallium 0.3 mM Potassium). Store at 4° C. when not in use. If kept sterile, this solution is good for months. Assay Protocol—
The ROMK channel functional thallium flux assay is performed in 384 wells, using the FLIPR-Tetra instrument. HEK-hKir1.1 cells are seeded in Poly-D-Lysine microplates and kept in a 37° C.-10% CO2 incubator overnight. On the day of the experiment, the growth media is replaced with the FluxOR™ reagent loading buffer and incubated, protected from light, at ambient temperature (23-25° C.) for 90 min. The loading buffer is replaced with assay buffer±test compound followed by 30 min incubation at ambient temperature, where the Thallium/Potassium stimulant is added to the microplate.
• 1. Seed HEK-hKir1.1 cells (50 μl at 20,000 cells/well) in 384-well PDL coated Microplates • 2. Allow cells to adhere overnight in humidified 37° C./10% CO2 incubator • 3. Completely remove cell growth media from microplate and replace with 25 μl loading buffer • 4. Incubate Microplate at room temperature, protected form light, for 90 min • 5. Remove loading buffer and replace with 25 μl 1× Assay Buffer±test compound. • 6. Incubate microplate at room temperature, protected form light, for 30 min • 7. […] Excitation=400 nm, Emission=460 & 580 nm. Collect data for 10 min. Data Calculation—
The fluorescence intensity of wells containing 3 μM of a standard control ROMK inhibitor of the present invention is used to define the ROMK-sensitive component of thallium flux. Fluorescence in the presence of test compounds is normalized to control values to provide % fluorescence change.

In experiment [2] the target is Kir1.1 (ROMK1) (Homo sapiens (Human), UniProt P48048). Briefly: Electrophysiology Assay (whole cell voltage clamp, IonWorks Quattro). Type of experiment: cell-based.
Chain of Kir1.1 (ROMK1) (P48048 whole entry, species assumed): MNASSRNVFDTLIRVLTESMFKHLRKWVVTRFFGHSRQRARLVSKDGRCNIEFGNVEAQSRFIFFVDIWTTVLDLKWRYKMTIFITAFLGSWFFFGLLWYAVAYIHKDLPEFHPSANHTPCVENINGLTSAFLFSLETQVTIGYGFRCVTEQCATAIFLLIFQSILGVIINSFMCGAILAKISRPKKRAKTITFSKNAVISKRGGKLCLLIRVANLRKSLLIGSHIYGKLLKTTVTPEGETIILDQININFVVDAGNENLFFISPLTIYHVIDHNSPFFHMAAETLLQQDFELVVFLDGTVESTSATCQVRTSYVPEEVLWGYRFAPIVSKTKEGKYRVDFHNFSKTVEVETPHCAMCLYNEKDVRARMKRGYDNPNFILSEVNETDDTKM
Description: as §1
Chinese hamster ovary cells stably expressing Kir1.1 channels were maintained in T-75 flasks in cell culture media in a humidified 10% CO2 incubator at 37° C. Prior to an experiment, Kir1.1 expression was induced by overnight incubation with 1 mM sodium butyrate. […] After centrifugation, the cell pellet was resuspended in approximately 4.0 ml of bath solution and placed in the IonWorks® instrument. The intracellular solution consisted of (in mM): 80 K gluconate, 40 KCl, 20 KF, 3.2 MgCl2, 3 EGTA, 5 Hepes, pH 7.4. Electrical access to the cytoplasm was achieved by perforation in 0.13 mg/ml amphotericin B for 4 minutes.
Voltage protocols and current recordings were performed using the IonWorks® HT software/hardware system. Currents were sampled at 1 kHz. No correction for liquid junction potentials was used. The test pulse, consisting of a 100 ms step to 0 mV from a holding potential of −70 mV, followed by a 100 ms voltage ramp from −70 mV to +70 mV, was applied before and after a 6 minutes compound incubation period. Test compounds were prepared by diluting DMSO stock solutions into the bath solution at 3× the final concentration and placed in the instrument in 96-well polypropylene plates. Current amplitudes were measured using the IonWorks® software.
(In patch-clamp work, channel activity is measured electrically.)

Setting [3] is: Chinese hamster ovary cells stably expressing Kir1.1, block during voltage step to 0 mV, 6 minutes compound incubation, read-out: EP Assay IC50.

What is called pIC50 is the negative decadic logarithm of the IC50, by convention in mol/L.

The structures appear in SMILES notation. pIC50: −log10 of the molar value. Where two headings read alike, the source gives them in different places.

Chain of hROMK (hKir1.1) (P48048 whole entry): as the sequence (P48048 whole entry, species assumed) above

With `Cc1c([C@@H](O)CN2CCCCC2CNCC(O)c2ccc(C#N)cn2)ccc2c1COC2=O` (stereo partly drawn) [Example 13, 6-{1-Hydroxy-2-[({1-[(2R)-2-hydroxy-2-(4-methyl-1-oxo-1,3-dihydro-2-benzofuran-5-yl)ethyl]piperidin-2-yl}methyl)amino]ethyl}pyridine-3-carbonitrile], the pIC50 in experiment [1] is 6.79; in experiment [2] (setting [3]), 6.57.
For `Cc1c([C@@H](O)CN2CC(CNS(=O)(=O)c3ccc(C#N)cc3)C2)ccc2c1COC2=O` [Example 14, (R)-4-Cyano-N-((1-(2-hydroxy-2-(4-methyl-1-oxo-1,3-dihydroisobenzofuran-5-yl)ethyl)azetidin-3-yl)methyl)benzenesulfonamide] the same measures were 6.91 and 6.82.
For `Cc1c([C@@H](O)CN2CC[C@@H](NS(=O)(=O)c3ccc(C#N)cc3)C2)ccc2c1COC2=O` [Example 15, 4-Cyano-N—((R)-1-((R)-2-hydroxy-2-(4-methyl-1-oxo-1,3-dihydroisobenzofuran-5-yl)ethyl)pyrrolidin-3-yl)benzenesulfonamide], the negative-log IC50 (pIC50) in experiment [1] was 6.19; in experiment [2] (setting [3]), 5.86.
`Cc1c([C@@H](O)CN2CCCC2CNc2ccc(C#N)cn2)ccc2c1COC2=O` (stereo partly shown) [Example 18]: the pIC50 in experiment [1] is 6.27; in experiment [2] (setting [3]) it was 7.19.
For `Cc1c([C@@H](O)CN2CCCC2CNS(=O)(=O)c2ccc(-n3cnnn3)cc2)ccc2c1COC2=O` (stereo partly drawn) [Example 19, N-((1-((R)-2-Hydroxy-2-(4-methyl-1-oxo-1,3-dihydroisobenzofuran-5-yl)ethyl)pyrrolidin-2-yl)methyl)-4-(1H-tetrazol-1-yl)benzenesulfonamide] the same measures were 6.69 and 6.61.
Take `Cc1c([C@@H](O)CNC2CCCN(c3ccc(C#N)cn3)C2)ccc2c1COC2=O` (stereo partly drawn) [Example 20, 6-(3-((R)-2-Hydroxy-2-(4-methyl-1-oxo-1,3-dihydroisobenzofuran-5-yl)ethylamino)piperidin-1-yl)nicotinonitrile]: the figures for the pIC50 in experiment [1] and in experiment [2] were 6.58 and 7.28, respectively.
With `Cc1c([C@@H](O)CN2CCC(C)(CNc3ccc(C#N)cn3)C2)ccc2c1COC2=O` (stereo partly drawn) [Example 21, 6-((1-((R)-2-Hydroxy-2-(4-methyl-1-oxo-1,3-dihydroisobenzofuran-5-yl)ethyl)-3-methylpyrrolidin-3-yl)methylamino)nicotinonitrile], the pIC50 was 6.26 in experiment [1] and 6.99 in experiment [2] (setting [3]).
Regarding `Cc1c([C@@H](O)CN2CCC(CNc3ccc(C#N)cn3)(c3ccccc3)C2)ccc2c1COC2=O` (stereo partly drawn) [Example 22, 6-((1-((R)-2-Hydroxy-2-(4-methyl-1-oxo-1,3-dihydroisobenzofuran-5-yl)ethyl)-3-phenylpyrrolidin-3-yl)methylamino)nicotinonitrile], the pIC50 was 6.09 in experiment [1] and 6.47 in experiment [2] (setting [3]).

These data come from patent US9108947B2, “Inhibitors of the Renal Outer Medullary Potassium channel” (Merck Sharp & Dohme Corp., priority 2011, dated 2015).
